Measurements published in publication PMC10008561 (Nature Communications, 2023).
Several values for one entry are separate records, joined by “and”; a condition that tells them apart may be missing. Identical values can stand only once. Like-named read-outs stand apart in the source and are kept apart here.

Tests used:
KOR = assay type: cell-based, human
human KOR (GoA) [1] = target: T1, human KOR (GoA) (Homo sapiens, UniProt P41145, D266A); experiment: cell-based
T1 construct: expressed in transfected cells; host or cells: HEK293T
T1 sequence (P41145 whole entry D266A): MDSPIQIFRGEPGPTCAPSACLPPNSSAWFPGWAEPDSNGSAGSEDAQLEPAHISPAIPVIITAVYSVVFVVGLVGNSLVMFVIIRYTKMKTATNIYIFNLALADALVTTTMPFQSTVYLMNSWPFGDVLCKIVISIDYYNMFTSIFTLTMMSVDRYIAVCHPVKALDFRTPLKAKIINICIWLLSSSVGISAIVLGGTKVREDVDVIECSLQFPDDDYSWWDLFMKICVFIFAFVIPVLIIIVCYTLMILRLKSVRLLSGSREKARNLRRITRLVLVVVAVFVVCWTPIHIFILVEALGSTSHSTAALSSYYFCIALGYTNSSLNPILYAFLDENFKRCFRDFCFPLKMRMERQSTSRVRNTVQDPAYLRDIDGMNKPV

human KOR (GoA) [2] = target: T2, human KOR (GoA) (Homo sapiens, UniProt P41145, G319L); experiment: cell-based
T2 construct: expressed in transfected cells; host or cells: HEK293T
T2 sequence (P41145 whole entry G319L): as the sequence (P41145 whole entry D266A) above, with A266D, G319L counted along it

human KOR (GoA) [3] = target: T3, human KOR (GoA) (Homo sapiens, UniProt P41145, D105A); experiment: cell-based
T3 construct: expressed in transfected cells; host or cells: HEK293T
T3 sequence (P41145 whole entry D105A): as the sequence (P41145 whole entry D266A) above, with D105A, A266D counted along it

human KOR (GoA) [4] = target: T4, human KOR (GoA) (Homo sapiens, UniProt P41145, N322A); experiment: cell-based
T4 construct: expressed in transfected cells; host or cells: HEK293T
T4 sequence (P41145 whole entry N322A): as the sequence (P41145 whole entry D266A) above, with A266D, N322A counted along it

human KOR (GoA) [5] = target: T5, human KOR (GoA) (Homo sapiens, UniProt P41145, D334A); experiment: cell-based
T5 construct: expressed in transfected cells; host or cells: HEK293T
T5 sequence (P41145 whole entry D334A): as the sequence (P41145 whole entry D266A) above, with A266D, D334A counted along it

[6] = ref Liu et al., Neuropsychopharmacology, 2018, Abraham et al., cited from earlier work
human KOR (β-arrestin 1) [7] = target: T6, human KOR (β-arrestin 1) (Homo sapiens, UniProt P41145); experiment: cell-based
T6 construct: expressed in transfected cells; host or cells: HEK293T
T6 sequence (P41145 whole entry): as the sequence (P41145 whole entry D266A) above, with A266D counted along it

human KOR (β-arrestin 1) [8] = target: T7, human KOR (β-arrestin 1) (Homo sapiens, UniProt P41145, R274A); experiment: cell-based; details: HEK-293T
T7 construct: expressed in transfected cells; host or cells: HEK293T
T7 sequence (P41145 whole entry R274A): as the sequence (P41145 whole entry D266A) above, with A266D, R274A counted along it

human KOR (β-arrestin 1) [9] = target: T8, human KOR (β-arrestin 1) (Homo sapiens, UniProt P41145, Y320L); experiment: cell-based; details: HEK-293T
T8 construct: expressed in transfected cells; host or cells: HEK293T
T8 sequence (P41145 whole entry Y320L): as the sequence (P41145 whole entry D266A) above, with A266D, Y320L counted along it

human KOR (β-arrestin 1) [10] = target: T9, human KOR (β-arrestin 1) (Homo sapiens, UniProt P41145, E297A); experiment: cell-based; details: HEK-293T
T9 construct: expressed in transfected cells; host or cells: HEK293T
T9 sequence (P41145 whole entry E297A): as the sequence (P41145 whole entry D266A) above, with A266D, E297A counted along it

human KOR (β-arrestin 1) [11] = target: T10, human KOR (β-arrestin 1) (Homo sapiens, UniProt P41145, N326A); experiment: cell-based; details: HEK-293T
T10 construct: expressed in transfected cells; host or cells: HEK293T
T10 sequence (P41145 whole entry N326A): as the sequence (P41145 whole entry D266A) above, with A266D, N326A counted along it

human KOR (β-arrestin 1) [12] = target: T11, human KOR (β-arrestin 1) (Homo sapiens, UniProt P41145, R170A); experiment: cell-based; details: HEK-293T
T11 construct: expressed in transfected cells; host or cells: HEK293T
T11 sequence (P41145 whole entry R170A): as the sequence (P41145 whole entry D266A) above, with R170A, A266D counted along it

human KOR (β-arrestin 1) [13] = target: T12, human KOR (β-arrestin 1) (Homo sapiens, UniProt P41145, F283A); experiment: cell-based; details: HEK-293T
T12 construct: expressed in transfected cells; host or cells: HEK293T
T12 sequence (P41145 whole entry F283A): as the sequence (P41145 whole entry D266A) above, with A266D, F283A counted along it

human KOR (β-arrestin 1) [14] = target: T13, human KOR (β-arrestin 1) (Homo sapiens, UniProt P41145, D155A); experiment: cell-based; details: HEK-293T
T13 construct: expressed in transfected cells; host or cells: HEK293T
T13 sequence (P41145 whole entry D155A): as the sequence (P41145 whole entry D266A) above, with D155A, A266D counted along it

human KOR (β-arrestin 1) [15] = target: T14, human KOR (β-arrestin 1) (Homo sapiens, UniProt P41145, G319L); experiment: cell-based; details: HEK-293T
T14 construct: expressed in transfected cells; host or cells: HEK293T
T14 sequence (P41145 whole entry G319L): as the sequence (P41145 whole entry D266A) above, with A266D, G319L counted along it

human KOR (β-arrestin 1) [16] = target: T15, human KOR (β-arrestin 1) (Homo sapiens, UniProt P41145, R271A); experiment: cell-based; details: HEK-293T
T15 construct: expressed in transfected cells; host or cells: HEK293T
T15 sequence (P41145 whole entry R271A): as the sequence (P41145 whole entry D266A) above, with A266D, R271A counted along it

human KOR (β-arrestin 1) [17] = target: T16, human KOR (β-arrestin 1) (Homo sapiens, UniProt P41145, D105A); experiment: cell-based; details: HEK-293T
T16 construct: expressed in transfected cells; host or cells: HEK293T
T16 sequence (P41145 whole entry D105A): as the sequence (P41145 whole entry D266A) above, with D105A, A266D counted along it

human KOR (β-arrestin 1) [18] = target: T17, human KOR (β-arrestin 1) (Homo sapiens, UniProt P41145, K227A); experiment: cell-based; details: HEK-293T
T17 construct: expressed in transfected cells; host or cells: HEK293T
T17 sequence (P41145 whole entry K227A): as the sequence (P41145 whole entry D266A) above, with K227A, A266D counted along it

human KOR (β-arrestin 1) [19] = target: T18, human KOR (β-arrestin 1) (Homo sapiens, UniProt P41145, N322A); experiment: cell-based; details: HEK-293T
T18 construct: expressed in transfected cells; host or cells: HEK293T
T18 sequence (P41145 whole entry N322A): as the sequence (P41145 whole entry D266A) above, with A266D, N322A counted along it

human KOR (β-arrestin 1) [20] = target: T19, human KOR (β-arrestin 1) (Homo sapiens, UniProt P41145, K200A); experiment: cell-based; details: HEK-293T
T19 construct: expressed in transfected cells; host or cells: HEK293T
T19 sequence (P41145 whole entry K200A): as the sequence (P41145 whole entry D266A) above, with K200A, A266D counted along it

human KOR (β-arrestin 1) [21] = target: T20, human KOR (β-arrestin 1) (Homo sapiens, UniProt P41145, F114L); experiment: cell-based; details: HEK-293T
T20 construct: expressed in transfected cells; host or cells: HEK293T
T20 sequence (P41145 whole entry F114L): as the sequence (P41145 whole entry D266A) above, with F114L, A266D counted along it

human KOR (β-arrestin 1) [22] = target: T21, human KOR (β-arrestin 1) (Homo sapiens, UniProt P41145, T94V); experiment: cell-based; details: HEK-293T
T21 construct: expressed in transfected cells; host or cells: HEK293T
T21 sequence (P41145 whole entry T94V): as the sequence (P41145 whole entry D266A) above, with T94V, A266D counted along it

human KOR (β-arrestin 1) [23] = target: T22, human KOR (β-arrestin 1) (Homo sapiens, UniProt P41145, Y139L); experiment: cell-based; details: HEK-293T
T22 construct: expressed in transfected cells; host or cells: HEK293T
T22 sequence (P41145 whole entry Y139L): as the sequence (P41145 whole entry D266A) above, with Y139L, A266D counted along it

human KOR (β-arrestin 1) [24] = target: T23, human KOR (β-arrestin 1) (Homo sapiens, UniProt P41145, R257A); experiment: cell-based; details: HEK-293T
T23 construct: expressed in transfected cells; host or cells: HEK293T
T23 sequence (P41145 whole entry R257A): as the sequence (P41145 whole entry D266A) above, with R257A, A266D counted along it

human KOR (β-arrestin 1) [25] = target: T24, human KOR (β-arrestin 1) (Homo sapiens, UniProt P41145, D334A); experiment: cell-based; details: HEK-293T
T24 construct: expressed in transfected cells; host or cells: HEK293T
T24 sequence (P41145 whole entry D334A): as the sequence (P41145 whole entry D266A) above, with A266D, D334A counted along it

human KOR (β-arrestin 1) [26] = target: T25, human KOR (β-arrestin 1) (Homo sapiens, UniProt P41145, Q115N); experiment: cell-based; details: HEK-293T
T25 construct: expressed in transfected cells; host or cells: HEK293T
T25 sequence (P41145 whole entry Q115N): as the sequence (P41145 whole entry D266A) above, with Q115N, A266D counted along it

human KOR (β-arrestin 1) [27] = target: T26, human KOR (β-arrestin 1) (Homo sapiens, UniProt P41145, L253A); experiment: cell-based; details: HEK-293T
T26 construct: expressed in transfected cells; host or cells: HEK293T
T26 sequence (P41145 whole entry L253A): as the sequence (P41145 whole entry D266A) above, with L253A, A266D counted along it

human KOR (β-arrestin 1) [28] = target: T27, human KOR (β-arrestin 1) (Homo sapiens, UniProt P41145, N141A); experiment: cell-based; details: HEK-293T
T27 construct: expressed in transfected cells; host or cells: HEK293T
T27 sequence (P41145 whole entry N141A): as the sequence (P41145 whole entry D266A) above, with N141A, A266D counted along it

human KOR = human KOR (Homo sapiens, UniProt P41145); experiment: cell-based; set-up: expressed in transfected cells; host or cells: HEK 293T (ATCC, CRL-3216); details: HEK-293T
Chain of human KOR (P41145 whole entry): as the sequence (P41145 whole entry D266A) above, with A266D counted along it

[29] = HEK-293T, read-out: βArrestin1 (Figure 5A concentration-response, replicate values)
[30] = read-out: KOR WT_Gi response (Figure S4D)
[31] = read-out: cAMP response (Figure S4C)

## CN(C(=O)/C=C/c1ccoc1)[C@@H]1CC[C@@]2(O)[C@H]3Cc4ccc(O)c5c4[C@@]2(CCN3CC2CC2)[C@H]1O5 [Nalfurafine, nalfurafine]
KOR
  ΔΔLog τ/KA (95% confidence interval): 0.78 (0.65 to 0.91)
Human KOR (GoA) [1]
  FC vs wild type: 132
Human KOR (GoA) [1]; HEK-293T
  Emax: 108%
Human KOR (GoA) [2]
  FC vs wild type: 20
Human KOR (GoA) [2]; HEK-293T
  Emax: 101%
Human KOR (GoA) [3]
  FC vs wild type: 110
Human KOR (GoA) [4]
  FC vs wild type: 100
Human KOR (GoA) [4]; HEK-293T
  Emax: 91.3%
Human KOR (GoA) [5]
  FC vs wild type: 18
Human KOR (GoA) [5]; HEK-293T
  Emax: 96.9%
[6]; high dose 20-50 μg/Kg
  side effects: starts causing motor incoordination, sedation, and aversion effects
[6]; low dose 2.5-20 μg/Kg
  side effects (dysphoria, sedation, hallucinations): does not produce typical
Human KOR (β-arrestin 1) [7]
  Emax%: 52.03% and 50%
Human KOR (β-arrestin 1) [7]; HEK-293T
  Emax: 52.1%
Human KOR (β-arrestin 1) [7]; [29]
  activation at 0.01 µM: 47.1%
  activation at 0.1 µM: 49.9%
  activation at 1 µM: 52.7%
Human KOR (β-arrestin 1) [8]
  Emax: 78.7%
Human KOR (β-arrestin 1) [9]
  Emax: 83.6%
Human KOR (β-arrestin 1) [10]
  Emax: 101%
Human KOR (β-arrestin 1) [11]
  Emax: 65.2%
Human KOR (β-arrestin 1) [12]
  Emax: 81.8%
Human KOR (β-arrestin 1) [13]
  Emax: 100%
Human KOR (β-arrestin 1) [14]
  Emax: 86.5%
Human KOR (β-arrestin 1) [15]
  Emax: 60.4%
Human KOR (β-arrestin 1) [16]
  Emax: 101%
Human KOR (β-arrestin 1) [17]
  Emax: 91.6%
Human KOR (β-arrestin 1) [18]
  Emax: 77.5%
Human KOR (β-arrestin 1) [19]
  Emax: 101%
Human KOR (β-arrestin 1) [20]
  Emax: 81.3%
Human KOR (β-arrestin 1) [21]
  Emax: 33.9%
Human KOR (β-arrestin 1) [22]
  Emax: 73.2%
Human KOR (β-arrestin 1) [23]
  Emax: 92.8%
Human KOR (β-arrestin 1) [24]
  Emax: 103%
Human KOR (β-arrestin 1) [25]
  Emax: 71.1%
Human KOR (β-arrestin 1) [26]
  Emax: 62.2%
Human KOR (β-arrestin 1) [27]
  Emax: 94.5%
Human KOR (β-arrestin 1) [28]
  Emax: 91.3%
Human KOR
  Emax: 100 ± 2%
Human KOR; [30]
  activation at 1 pM: 34.6%
  activation at 3.162 pM: 50.4%
  activation at 10 pM: 75.7%
  activation at 31.62 pM: 89.3%
  activation at 0.0001 µM: 97.6%
  activation at 0.001 µM: 96.5%
  activation at 0.1 µM: 103%
  activation at 1 µM: 100%
  activation at […]: 94.1% and 99.5% and 96.9%
Human KOR; read-out: cAMP response
  activation at 1 pM: 42.4%
  activation at 3.162 pM: 56.3%
  activation at 10 pM: 78.7%
  activation at 31.62 pM: 90.8%
  activation at 0.0001 µM: 98.1%
  activation at 0.001 µM: 97.1%
  activation at 0.1 µM: 103%
  activation at 1 µM: 101%
  activation at […]: 95% (2×) and 99.8% and 97.5%
Human KOR; [31]
  activation at 1 pM: 34.6%
  activation at 3.162 pM: 50.4%
  activation at 10 pM: 75.7%
  activation at 31.62 pM: 89.3%
  activation at 0.0001 µM: 97.6%
  activation at 0.001 µM: 96.5%
  activation at 0.1 µM: 103%
  activation at 1 µM: 100%
  activation at […]: 94.1% and 99.5% and 96.9%
